Usually MBC stands for the lowest tested concentration that kills the bacteria rather than only halting them. What is called melting point is the temperature, or range, at which the solid turns liquid. For orientation: IC50 means the point on the concentration scale where inhibition reaches its midpoint.

Here are results for six compounds from paper PMC10298275, “Antiproliferative Activity and Impact on Human Gut Microbiota of New O-Alkyl Derivatives of Naringenin and Their Oximes” (International Journal of Molecular Sciences, 2023).

The subject of data set [1] is Staphylococcus aureus ATCC 25923. Put plainly: MBC assay. It is filed as cell-based. The following applies: Staphylococcus aureus, ATCC25923; S. aureus ATCC 25923; read-out: MBC. The procedure:
(§1) The minimum bactericidal concentration (MBC) was tested for all naringenin derivatives. First, 10 µL of medium was taken from the plate, on which the MIC was determined for the MIC value, the value below and the two values above. This volume was transferred to TSA or MC agar. After 18–24 h (depending on strain) incubation at 37 °C, colonies were counted. The concentration of test compounds at which no bacterial growth was observed was defined as the MBC value. Each experiment was repeated 3 times.

For data set [2], the system named is Escherichia coli K12. Put plainly: MBC assay. It is filed as cell-based. The following applies: Escherichia coli; E. coli K12; read-out: MBC. As for the experimental part:
as §1

The test system of data set [3] is Enterococcus faecalis ATCC 29212. Put plainly: MBC assay. Particulars: Enterococcus faecalis, ATCC29212; E. faecalis ATCC 29212; read-out: MBC. The class given is cell-based. The procedure: as §1
Data set [4] concerns Staphylococcus aureus ATCC 25923. Nature of the data set: MIC, microdilution method. It is filed as cell-based. Particulars: S. aureus ATCC 25923, MHB, 18 h, 37 °C, tested 512 to 1 µg/mL. As for the experimental part:
(§2) Non-pathogenic reference strains representing the intestinal microbiome were used for the studies: Escherichia coli K12, Staphylococcus aureus ATCC 25923 and Enterococcus faecalis ATCC 29212. All strains were obtained from the collection of the Department of Microbiology at the Medical University of Wrocław.
(§3) The strains were received from the museum (−80 °C) and grown in tryptic soy broth (TSB, OXOID, Basingstoke, UK) under continuous shaking conditions (MaxQTM6000 incubator shaker, Thermo Scientific, Waltham, MA, USA) at 125 rpm at 37 °C. Then, they were moved to the growth media, namely tryptic soy agar (TSA, OXOID, Basingstoke, UK) and MacConkey agar (MC, Millipore, Darmstadt, Germany) for S. aureus or E. faecalis and E. coli, respectively.
(§4) A fresh 18–24 h culture was used for each study. For this purpose, a culture with a density of 1.5 × 10^8 CFU/mL in Mueller–Hinton broth (MHB, OXOID, Basingstoke, UK) was prepared and used for further microdilution studies.
(§5) The antimicrobial activity of the O-alkyl derivatives of naringenin and their oximes was tested in vitro using the microdilution method, showing the minimum inhibitory concentration (MIC), in accordance with the recommendations of the European Antimicrobial Susceptibility Testing Committee EUCAST [44]. MICs were determined in 96-well microdilution plates. The tests were carried out in MHB medium. The O-alkyl derivatives of naringenin and their oximes were tested in the concentration range of 512 to 1 µg/mL in a geometric process in MHB medium. The final concentration of the test strains in each test well was 5 × 10^5 CFU/mL. MICs were read after 18 h (for E. coli and S. aureus) and 24 h (for E. faecalis) incubation at 37 °C.
(§6) A strain growth control (tested strain in medium), background control for tested compounds (naringenin derivatives in MHB), medium control (only pure MHB) and compound solvent control (DMSO at test compound concentration, strain and MHB) were set for each experiment. Each test was set up with three independent experiments, each as three separate replicates.
(§7) The […], OD600, was measured in a plate reader (ASYS UVM340, BIOCHROM Ltd., Cambridge, UK). The background control of the tested compounds and the clean medium were included in the absorbance results.
(In general: Broth dilution looks for growth in wells or tubes with falling amounts of substance.)

Data set [5] relates to Escherichia coli K12. Nature of the data set: MIC, microdilution method. The class given is cell-based. Particulars: Escherichia coli; E. coli K12; MHB, 18 h, 37 °C; tested 512 to 1 µg/mL; read-out: MIC. As for the experimental part:
as §2, §3, §4, §5, §6, §7

For data set [6], the system named is Enterococcus faecalis ATCC 29212. Put plainly: MIC, microdilution method. The class given is cell-based. The following applies: E. faecalis ATCC 29212, MHB, 24 h, 37 °C, tested 512 to 1 µg/mL. The procedure:
as §2, §3, §4, §5, §6, §7

Data set [7] can be described thus: SRB assay, cytotoxicity. The following applies: human, HT-29 cells; HT-29, SRB, 24 h exposure, three independent repeats; read-out: Cytotoxicity (IC50 ± SD). It is filed as cell-based, human. As for the experimental part:
(§8) The HT-29 cells (ATCC, Manassas, VA, USA) were cultured within α-MEM (IIET PAS, Wrocław, Poland) supplemented with 10% fetal bovine serum (Sigma, St. Louis, MO, USA), antimycotic (100 μg/mL penicillin, 100 μg/mL streptomycin and 0.25 μg/mL amphotericin) (Sigma) and 2 mM glutamine (Sigma). The 3T3-L1 cells (ATCC, Manassas, VA, USA) were cultivated using DMEM high-glucose medium (IIET PAS, Wrocław, Poland) supplemented as above. Both cell lines were cultured at 37 °C in an atmosphere of 5% CO2.
(§9) The sulforhodamine B (SRB) assay was performed according to a previously published protocol. Briefly, 1 × 10^4 HT-29 or 5 × 10^3 3T3-L1 cells were seeded into 96-well plates. After attaching to the plate surface, the cells were incubated with 100, 75, 50, 25, 10 or 1 µg/mL of the investigated compounds for 24 h. After this time, proteins were precipitated with trichloroacetic acid and stained with SRB. The absorbance was measured at 560 nm using a GloMax Discover Microplate Reader (Promega, Madison, WI, USA).
On the technique in general: Sulforhodamine B stains cellular protein and so reports cell mass.

Data set [8] deals with HT-29 cells. Put plainly: SRB assay, cytotoxicity. It is filed as cell-based, human. The following applies: HT-29, SRB, up to 100 µg/mL. The procedure:
as §8, §9

Data set [9] has as its system HT-29 cells. Put plainly: MTT assay, cell viability. The class given is cell-based, human. Particulars: HT-29, highest concentration 100 µg/mL, 24 h. The procedure: as §8
First, 1 × 10^4 HT-29 cells or 5 × 10^3 3T3-L1 cells were seeded into a 96-well plate and incubated for one night. Then, cells were treated with different concentrations of the investigated compounds within 24 h. Afterwards, the medium was replaced with a fresh medium containing 0.5 mg/mL of 3-(4,5-dimethylthiazol-2-yl)-2,5-diphenyl-2H-tetrazolium bromide (MTT, Sigma) and incubated for 2 h at 37 °C. After removing the medium, the formazan salts were dissolved in dimethyl sulfoxide (DMSO, Sigma), and the absorbance of the solution was measured at 560 nm using a plate reader.
On the technique in general: Tetrazolium dyes change colour on reduction, which living cells bring about.

Data set [10] is described as follows: SRB assay, cytotoxicity. The class given is cell-based, mouse. Particulars: mouse, 3T3-L1 cells; 3T3-L1, SRB, 24 h exposure, three independent repeats; read-out: Cytotoxicity (IC50 ± SD). As for the experimental part:
as §8, §9

The mark [11] stands for this setting: Staphylococcus aureus, ATCC25923, read-out: MIC.
Where [12] appears, read: Enterococcus faecalis, ATCC29212, read-out: MIC.

Values after ≈ are worked out from the molar mass of the structure shown. Where two headings read alike, the source gives them in different places. Some results are limits rather than exact numbers.

For `CCCCCCCOc1ccc([C@@H]2CC(=O)c3c(O)cc(OCCCCCCC)cc3O2)cc1` [A4, 7,4′-Di-O-heptylnaringenin], the melting point fell in the range of 74 to 75 °C. Moreover, the MBC in data set [1] is greater than 512 µg/mL. The MBC in data set [2] is greater than 512 µg/mL. For the same compound, the MBC in data set [3] is greater than 512 µg/mL. Further, in data set [4], the MIC is recorded as >512 (>512) µg/mL. For the same compound, the MIC in [4] (setting [11]) was greater than 512 µg/mL. In addition, the MIC in data set [5] is greater than 512 µg/mL. Moreover, the MIC in data set [6] (setting [12]) is 32 µg/mL (≈ 68.3 µM). The IC50 at 24 h in data set [7] was greater than 100 µg/mL. Also, the “effect on the proliferation of the HT-29 cell line” value (“effect on the proliferation” below) in [8] is listed as “no effect on the proliferation”. Moreover, the “effect on colon adenocarcinoma cells (viability, MTT)” value (“effect on colon adenocarcinoma cells” for short) in data set [9] is recorded as “weak”. For the same compound, in data set [10], the IC50 at 24 h was greater than 100 µg/mL.

In turn, `CCCCCCCCOc1ccc([C@@H]2CC(=O)c3c(O)cc(OCCCCCCCC)cc3O2)cc1` [A6, 7,4′-Di-O-octylnaringenin] gave a melting point of 60 to 61 °C. Also, the MBC in data set [1] was greater than 512 µg/mL. For the same compound, in data set [2], the MBC was greater than 512 µg/mL. For the same compound, in data set [3], the minimum bactericidal concentration (MBC) is greater than 512 µg/mL. Further, the MIC in data set [4] is >512 (>512) µg/mL. The MIC in data set [4] (setting [11]) was greater than 512 µg/mL. Besides, the MIC in data set [5] is greater than 512 µg/mL. Also, the MIC in [6] (setting [12]) amounted to 32 µg/mL (≈ 64.4 µM). For the same compound, the IC50 at 24 h in [7] is greater than 100 µg/mL. The “effect on the proliferation” value in data set [8] was “no effect on the proliferation”. The “effect on colon adenocarcinoma cells” value in data set [9] is listed as “weak”. In data set [10], the IC50 at 24 h is greater than 100 µg/mL.

For `CCCCCCCCCOc1ccc([C@@H]2CC(=O)c3c(O)cc(OCCCCCCCCC)cc3O2)cc1` [A8, 7,4′-Di-O-nonylnaringenin], the melting point was in the range of 70 to 71 °C. In addition, in data set [1], the MBC was greater than 512 µg/mL. Besides, the minimal bactericidal concentration (MBC) in data set [2] was greater than 512 µg/mL. For the same compound, the minimum bactericidal concentration (MBC) in data set [3] was greater than 512 µg/mL. Also, in data set [4], the MIC is recorded as 512 (>512) µg/mL. Also, the MIC in data set [4] (setting [11]) came out at 512 µg/mL (≈ 976 µM). Further, the MIC in [5] is greater than 512 µg/mL. For the same compound, in data set [6], the MIC is reported as 512 (>512) µg/mL. The MIC in data set [6] (setting [12]) is 512 µg/mL (≈ 976 µM). Moreover, in [7], the IC50 at 24 h was greater than 100 µg/mL. Moreover, the “effect on the proliferation” value in data set [8] was “no effect on the proliferation”. Moreover, the “effect on colon adenocarcinoma cells” value in data set [9] is listed as “weak”. Also, the IC50 at 24 h in data set [10] was greater than 100 µg/mL.

For the compound `CCCCCCCCCCCOc1ccc([C@@H]2CC(=O)c3c(O)cc(OCCCCCCCCCCC)cc3O2)cc1` [A10, 7,4′-Di-O-undecylnaringenin], the melting point was 63 to 64 °C. In addition, in [1], the minimum bactericidal concentration (MBC) was greater than 512 µg/mL. Also, the minimal bactericidal concentration (MBC) in data set [2] was greater than 512 µg/mL. The MBC in data set [3] was greater than 512 µg/mL. Further, in [4] (setting [11]), the MIC turned out to be 256 µg/mL (≈ 441 µM). Also, the MIC in [5] was greater than 512 µg/mL. For the same compound, the MIC in data set [6] (setting [12]) was found to be 32 µg/mL (≈ 55.1 µM). Also, the IC50 at 24 h in data set [7] is greater than 100 µg/mL. In addition, the “effect on the proliferation” value in [8] is given as “no effect on the proliferation”. Also, the “effect on colon adenocarcinoma cells” value in data set [9] was “weak”. Further, in data set [10], the 50% inhibitory concentration (IC50) at 24 h was greater than 100 µg/mL.

Compound `CCCCCCCCCOc1ccc([C@@H]2CC(=NO)c3c(O)cc(OCCCCCCCCC)cc3O2)cc1` [B8, 7,4′-Di-O-nonylnaringenin oxime] displayed a melting point of 87 to 88 °C. The minimum bactericidal concentration (MBC) in data set [1] is greater than 512 µg/mL. In [2], the minimum bactericidal concentration (MBC) was greater than 512 µg/mL. Further, the MBC in [3] is greater than 512 µg/mL. Besides, the MIC in data set [4] (setting [11]) is greater than 512 µg/mL. In data set [5], the MIC was greater than 512 µg/mL. For the same compound, the MIC in data set [6] is reported as >512 (>512) µg/mL. In addition, the MIC in data set [6] (setting [12]) is greater than 512 µg/mL. Also, in data set [7], the concentration for half-maximal inhibition (IC50) at 24 h is greater than 100 µg/mL. In addition, in data set [8], the “effect on the proliferation” value is “no effect on the proliferation”. For the same compound, the IC50 at 24 h in data set [10] is greater than 100 µg/mL.

With `CCCCCCCCCCCOc1ccc([C@@H]2CC(=NO)c3c(O)cc(OCCCCCCCCCCC)cc3O2)cc1` [B10, 7,4′-Di-O-undecylnaringenin oxime], the melting point is 95 to 96 °C. In data set [1], the minimum bactericidal concentration (MBC) is greater than 512 µg/mL. For the same compound, the minimum bactericidal concentration (MBC) in [2] is greater than 512 µg/mL. Besides, in data set [3], the minimal bactericidal concentration (MBC) is greater than 512 µg/mL. The MIC in [4] (setting [11]) was greater than 512 µg/mL. For the same compound, the MIC in data set [5] was greater than 512 µg/mL. Besides, the MIC in [6] is >512 (>512) µg/mL. Moreover, the MIC in [6] (setting [12]) was greater than 512 µg/mL. In addition, in [7], the IC50 at 24 h was greater than 100 µg/mL. In data set [8], the “effect on the proliferation” value is “no effect on the proliferation”. For the same compound, the half-maximal inhibitory concentration (IC50) at 24 h in [10] is greater than 100 µg/mL.
